What was measured:
[1] = system: tel26 (DNA, G4) TTAGGGTTAGGGTTAGGGTTAGGGTT; assay: CD melting, 290 nm; settings: 20 mM KCl, 5 mM potassium phosphate, pH 7, 2 µM DNA, 4 µM compound (2 equiv), free Tm 43 °C
[2] = system: ds12 (DNA, duplex) CGCGAATTCGCG; assay: CD melting, 253 nm; settings: 20 mM KCl, 5 mM potassium phosphate; pH 7; 2 µM DNA; 4 µM compound (2 equiv); free Tm 65 °C
[3] = system: CPG-tel26 (DNA, G4) TTAGGGTTAGGGTTAGGGTTAGGGTT; assay: G4-CPG affinity chromatography, UV; settings: 50 mM KCl; 10% DMSO, 10% ethanol; 60 µM compound loaded; error ±2%
[4] = system: CPG-c-myc (DNA, G4) TGGGGAGGGTGGGGAGGGTGGGGAAGGTGGGGA; assay: G4-CPG affinity chromatography, UV; settings: 50 mM KCl; 10% DMSO, 10% ethanol; 60 µM compound loaded; error ±2%
[5] = system: CPG-ds27 (DNA, hairpin) CGCGAATTCGCGTTTCGCGAATTCGCG; assay: G4-CPG affinity chromatography, UV; settings: 50 mM KCl; 10% DMSO, 10% ethanol; 60 µM compound loaded; error ±2%
[6] = system: pu22 (DNA, G4) TGAGGGTGGGTAGGGTGGGTAA; assay: CD melting, 263 nm; settings: no metal cations, 10 mM Tris-HCl, pH 7, 2 µM DNA, 4 µM compound (2 equiv), free Tm 27 °C
[7] = system: ds12 (DNA, duplex) CGCGAATTCGCG; assay: CD titration; settings: 20 mM KCl, 5 mM potassium phosphate; pH 7, 20 °C; 2 µM DNA; up to 4 µM compound; no relevant CD effect

| SMILES | ΔTm ([1]; switch to parallel fold) | ΔTm [2] | Bound ligand (%) [3] | Bound ligand (%) [4] | Bound ligand (%) [5] | ΔTm [6] | binding [7] | ΔTm ([6]; two transitions) | ΔTm [1] |
| --- | --- | --- | --- | --- | --- | --- | --- | --- | --- |
| C[n+]1ccc(C#Cc2cnc3n2c2ncc(C#Cc4cc[n+](C)cc4)n2c2ncc(C#Cc4cc[n+](C)cc4)n32)cc1 | +23 °C | +15 °C | 75% | 90% | 50% |  |  |  |  |
| C[n+]1ccc(C#Cc2cnc3n4ccnc4n4c(C#Cc5cc[n+](C)cc5)cnc4n23)cc1 |  |  | 79% | 100% | 40% | +45 °C |  |  |  |
| C[n+]1ccc(C#Cc2cnc3n4ccnc4n4ccnc4n23)cc1 |  |  | 66% | 88% | 15% | +8 °C | no |  |  |
| C[n+]1ccccc1C#Cc1cnc2n1c1ncc(C#Cc3cccc[n+]3C)n1c1ncc(C#Cc3cccc[n+]3C)n21 | +22 °C | +15 °C | 89% | 99% | 56% |  |  | +16/ + 63 °C |  |
| C[n+]1ccccc1C#Cc1cnc2n3ccnc3n3c(C#Cc4cccc[n+]4C)cnc3n12 |  |  | 74% | 84% | 39% |  |  |  |  |
| C[n+]1ccccc1C#Cc1cnc2n3ccnc3n3ccnc3n12 |  | −2 °C | 72% | 85% | 10% |  | no |  | +3 °C |

Source: publication PMC12223358 (2025)
